{"source": "paper PMC11858051", "about": "“PK/PD Analysis of High-Dose Daptomycin Use in the Treatment of Bone and Joint Infections: Data from a Real-World Setting” (Microorganisms, 2025)", "key": {"[1]": {"conditions": "human, in vivo", "method": "This is a retrospective, monocentric study, including adult patients with a suspected or documented diagnosis of Gram-positive BJI who received daptomycin and whose plasma concentrations were measured once the steady state was reached. The study was approved by the Institutional Review Board of University of Udine (Prot IRB: 266/2023). We included all patients who were hospitalized at our University Hospital from July 2022 to December 2023. Data were retrieved from the hospital’s electronic registry, selecting all TDM performed by the Clinical Pharmacology Institute of ASU FC in the time frame of interest and then identifying the analyses required by the orthopedic wards (see Figure 1).\nThe peak and trough concentrations of daptomycin were determined through blood samples collected 30 min after the drug infusion and before dosing, respectively, on day 3 of therapy, once steady state was achieved. The drug clearance was estimated as apparent clearance, calculated as the […].\nDaptomycin concentrations were measured by a validated High-Performance Liquid Chromatography–Ultraviolet (HPLC-UV) method previously published, using Nexera-i 2040 LC, Shimadzu® (Shimadzu USA Manufacturing INC, Canby, OR, USA)."}, "[2]": {"experiment": "PK/PD target attainment at first TDM (eAUC0–24h and trough thresholds)", "protocol": "All patients performed daptomycin TDM according to the clinical practice, and its daily area under the concentration–time curve (eAUC0–24h; including eAUC24–48h in case of other day administration, meaning when the drug dose was given every 48 h instead of every 24 h as indicated in the SmPC as the standard dose) was estimated according to the following Equation (1) reported in the literature [18, 19], based on daptomycin trough and peak plasma concentrations: (1) AUC0–24 h = 0.5 × t^′×Cmax +∫t^′infinityCmax ×e^−kel×(t)dt− ∫24infinityCmin ×e^−kel×(t)dt\nFor the analysis of the safety profile of daptomycin, we considered the main PK parameters expressing the overall exposure to the antibiotic and its property to be cleared, such as eAUC0–24h and the trough plasma concentrations, respectively. For the efficacy daptomycin PK/PD targets, we considered the main PK parameter indicating the daily exposure to daptomycin which is represented by the eAUC0–24h and we combined this with the pertinent PD parameter of interest of bacterial disease which is the Minimum Inhibitory Concentration (MIC) of the isolated pathogen."}, "[3]": {"experiment": "C-reactive protein as surrogate efficacy marker during TDM", "format": "in vivo, human", "method": "Therefore, we attempted to correlate the targeted AUC0–24h with CRP levels measured after treatment. The CRP was obtained at the time of diagnosis and at the end of treatment or between stages in two-stage exchange arthroplasty."}, "[4]": {"conditions": "single patient with CPK 1000 U/L"}}}
{"molecule": "CCCCCCCCCC(=O)N[C@@H](Cc1c[nH]c2ccccc12)C(=O)N[C@H](CC(N)=O)C(=O)N[C@@H](CC(=O)O)C(=O)N[C@@H]1C(=O)NCC(=O)N[C@@H](CCCN)C(=O)N[C@@H](CC(=O)O)C(=O)N[C@H](C)C(=O)N[C@@H](CC(=O)O)C(=O)NCC(=O)N[C@H](CO)C(=O)N[C@@H]([C@H](C)CC(=O)O)C(=O)N[C@@H](CC(=O)c2ccccc2N)C(=O)O[C@@H]1C", "note": "[daptomycin, Daptomycin]", "values": [{"measurement": "estimated AUC0–24h, maximum value", "setting": "[1]", "result": 2263, "unit": "µg·h/mL"}, {"measurement": "estimated AUC0–24h, minimum value", "setting": "[1]", "result": 395.7, "unit": "µg·h/mL"}, {"measurement": "exposure in females compared with males (eAUC0–24h, trough, peak, clearance, also dose-adjusted)", "setting": "[1]", "result": "Females are overexposed to daptomycin compared with males"}, {"measurement": "median dose-adjusted eAUC0–24h (eAUC0–24h/D), BMI > 25 kg/m^2", "setting": "[1]", "result": 112.6}, {"measurement": "median dose-adjusted eAUC0–24h (eAUC0–24h/D), BMI ≤ 25 kg/m^2", "setting": "[1]", "result": 89.58}, {"measurement": "median eAUC between 24 and 48 h after dosing (eAUC24–48h), other day administration", "setting": "[1]", "result": 339.8, "unit": "µg·h/mL"}, {"measurement": "median eAUC within 24 h from dosing, other day administration", "setting": "[1]", "result": 1060, "unit": "µg·h/mL"}, {"measurement": "median estimated AUC0–24h", "setting": "[1]", "result": 996.3, "unit": "µg·h/mL"}, {"measurement": "median estimated drug clearance", "setting": "[1]", "result": 12.2, "unit": "mL/min"}, {"measurement": "patients not receiving adequate doses for the PK/PD efficacy and safety targets", "setting": "[2]; dosing suggested in the SmPC", "result": 68.8, "unit": "%"}, {"measurement": "patients underexposed (eAUC0–24h < 666 mg·h/L)", "setting": "[2]; first TDM, 6 of 77 patients, doses according to SmPC", "result": 7.8, "unit": "%"}, {"measurement": "patients with high eAUC0–24h to monitor (939–1174 mg·h/L) and trough <24.3 mg/L", "setting": "[2]; first TDM, 16 of 77 patients", "result": 20.8, "unit": "%"}, {"measurement": "patients with eAUC0–24h > 1174 mg·h/L", "setting": "[2]; first TDM, 26 of 77 patients", "result": 33.8, "unit": "%"}, {"measurement": "patients on target (eAUC0–24h 666–939 mg·h/L and trough < 24.3 mg/L)", "setting": "[2]; first TDM, 27 of 77 patients", "result": 35.1, "unit": "%"}, {"measurement": "cases with increase in absolute eosinophil count at follow-up", "setting": "132 eosinophil count measurements at basal time and during TDM", "result": 108, "unit": "cases"}, {"measurement": "other adverse events", "setting": "during therapy", "result": "No other adverse events were reported"}, {"measurement": "eAUC0–24h of the patient with high CPK", "setting": "[4]", "result": 1051, "unit": "µg·h/mL"}, {"measurement": "plasma peak concentration of the patient with high CPK", "setting": "[4]", "result": 84.4, "unit": "mg/L"}, {"measurement": "plasma trough concentration of the patient with high CPK", "setting": "[4]", "result": 18.7, "unit": "mg/L"}, {"measurement": "plasma CPK concentration reached in the one patient with high CPK", "setting": "single patient, baseline 325 U/L", "result": 1000, "unit": "U/L"}, {"measurement": "median CRP during TDM", "setting": "[3]; 155 measurements, median", "result": 28.99, "unit": "mg/L"}, {"measurement": "median CRP when eAUC0–24h >939 mg·h/L", "setting": "[3]; aggressive eAUC0–24h group, Mann–Whitney p = 0.029 vs <939", "result": 17.47, "unit": "mg/L"}, {"measurement": "median CRP when eAUC0–24h < 939 mg·h/L", "setting": "[3]; eAUC0–24h < 939 mg·h/L group", "result": 40.60, "unit": "mg/L"}]}
